Like-named read-outs stand apart in the source and are kept apart here.
Assays:
MSI2 RRM1 [1] = molecular target: T1, MSI2 RRM1 (Homo sapiens, UniProt Q96DH6); test: microscale thermophoresis; format: binding; details: NT647-labelled protein, pH 7.4, RT
T1 construct: RNA-recognition motif 1 only (nucleotides 64-270 of NM_138962.2 as printed); GST-RRM1 made in BL21(DE3); for NMR His6-SUMO fusion with tag cleaved
T1 sequence (Q96DH6 22-104): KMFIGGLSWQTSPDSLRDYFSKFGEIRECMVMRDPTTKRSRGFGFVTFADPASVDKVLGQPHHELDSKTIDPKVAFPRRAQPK

bovine serum ALBUMIN = molecular target: T2, bovine serum ALBUMIN (Bos taurus, UniProt P02769); test: microscale thermophoresis; format: binding
T2 construct: gene ALB
T2 sequence (P02769 25-607): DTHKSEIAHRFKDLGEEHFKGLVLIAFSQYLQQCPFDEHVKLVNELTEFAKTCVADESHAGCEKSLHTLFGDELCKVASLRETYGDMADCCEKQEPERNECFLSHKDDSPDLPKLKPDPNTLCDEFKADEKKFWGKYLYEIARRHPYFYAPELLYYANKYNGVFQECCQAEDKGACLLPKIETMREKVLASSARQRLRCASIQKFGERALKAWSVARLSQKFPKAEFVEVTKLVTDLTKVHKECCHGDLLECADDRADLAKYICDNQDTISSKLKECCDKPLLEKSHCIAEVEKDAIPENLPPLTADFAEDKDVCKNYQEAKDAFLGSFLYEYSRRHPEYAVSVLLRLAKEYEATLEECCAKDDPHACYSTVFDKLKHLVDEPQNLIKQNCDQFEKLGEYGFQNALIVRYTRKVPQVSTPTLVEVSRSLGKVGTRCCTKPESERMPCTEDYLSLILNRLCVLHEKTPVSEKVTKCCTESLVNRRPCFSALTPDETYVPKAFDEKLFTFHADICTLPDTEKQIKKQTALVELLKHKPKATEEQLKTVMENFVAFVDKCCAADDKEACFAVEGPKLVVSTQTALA

[2] = molecular target: T3, GST-MSI2 (full-length human MSI2) (Homo sapiens, UniProt Q96DH6, R100A); test: microscale thermophoresis; format: binding
T3 construct: full-length, N-terminal GST-Flag tag kept (pGEX6P3), expressed in E. coli BL21(DE3)
T3 sequence (Q96DH6 whole entry R100A): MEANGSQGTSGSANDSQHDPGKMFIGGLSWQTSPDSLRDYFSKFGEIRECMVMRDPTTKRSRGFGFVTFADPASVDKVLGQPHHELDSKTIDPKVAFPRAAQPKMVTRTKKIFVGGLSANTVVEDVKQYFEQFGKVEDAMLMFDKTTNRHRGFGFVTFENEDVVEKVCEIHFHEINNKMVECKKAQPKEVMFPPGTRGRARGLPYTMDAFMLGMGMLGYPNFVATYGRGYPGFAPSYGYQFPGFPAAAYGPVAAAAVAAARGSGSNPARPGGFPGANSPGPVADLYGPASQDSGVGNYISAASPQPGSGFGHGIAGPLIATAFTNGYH

MSI2 RRM1 [3] = molecular target: T1, MSI2 RRM1; test: NMR chemical shift perturbation; format: binding; details: 15N-labelled RRM1, tag removed, 20 mM MES, 150 mM NaCl, pH 6.0, 5 °C
[4] = molecular target: T4, GST-MSI2 (full-length human MSI2) (Homo sapiens, UniProt Q96DH6, F66A/F97A/R100A); test: microscale thermophoresis; details: NT647-labelled protein, 50 mM HEPES, 100 mM NaCl, 0.05% Tween-20, pH 7.4, RT; no binding
T4 construct: full-length, N-terminal GST-Flag tag kept (pGEX6P3), expressed in E. coli BL21(DE3)
T4 sequence (Q96DH6 whole entry F66A/F97A/R100A): as the sequence (Q96DH6 whole entry R100A) above, with F66A, F97A counted along it

[5] = molecular target: T5, GST-MSI2 (full-length human MSI2) (Homo sapiens, UniProt Q96DH6, F97A); test: microscale thermophoresis; format: binding
T5 construct: full-length, N-terminal GST-Flag tag kept (pGEX6P3), expressed in E. coli BL21(DE3)
T5 sequence (Q96DH6 whole entry F97A): as the sequence (Q96DH6 whole entry R100A) above, with F97A, A100R counted along it

[6] = molecular target: T6, GST-MSI2 (full-length human MSI2) (Homo sapiens, UniProt Q96DH6); test: fluorescence polarization, RNA-binding inhibition
T6 construct: full-length, N-terminal GST-Flag tag kept (pGEX6P3), expressed in E. coli BL21(DE3)
T6 sequence (Q96DH6 whole entry): as the sequence (Q96DH6 whole entry R100A) above, with A100R counted along it

[7] = molecular target: T6, GST-MSI2 (full-length human MSI2); test: microscale thermophoresis; format: binding
[8] = molecular target: T7, GST-MSI2 (full-length human MSI2) (Homo sapiens, UniProt Q96DH6, K22A); test: microscale thermophoresis; format: binding
T7 construct: full-length, N-terminal GST-Flag tag kept (pGEX6P3), expressed in E. coli BL21(DE3)
T7 sequence (Q96DH6 whole entry K22A): as the sequence (Q96DH6 whole entry R100A) above, with K22A, A100R counted along it

GST-SYNCRIP = molecular target: T8, GST-SYNCRIP (Homo sapiens, UniProt O60506); test: microscale thermophoresis; format: binding
T8 construct: N-terminal GST-Flag tag kept (pGEX6P3), expressed in E. coli BL21(DE3)
T8 sequence (O60506 1-623): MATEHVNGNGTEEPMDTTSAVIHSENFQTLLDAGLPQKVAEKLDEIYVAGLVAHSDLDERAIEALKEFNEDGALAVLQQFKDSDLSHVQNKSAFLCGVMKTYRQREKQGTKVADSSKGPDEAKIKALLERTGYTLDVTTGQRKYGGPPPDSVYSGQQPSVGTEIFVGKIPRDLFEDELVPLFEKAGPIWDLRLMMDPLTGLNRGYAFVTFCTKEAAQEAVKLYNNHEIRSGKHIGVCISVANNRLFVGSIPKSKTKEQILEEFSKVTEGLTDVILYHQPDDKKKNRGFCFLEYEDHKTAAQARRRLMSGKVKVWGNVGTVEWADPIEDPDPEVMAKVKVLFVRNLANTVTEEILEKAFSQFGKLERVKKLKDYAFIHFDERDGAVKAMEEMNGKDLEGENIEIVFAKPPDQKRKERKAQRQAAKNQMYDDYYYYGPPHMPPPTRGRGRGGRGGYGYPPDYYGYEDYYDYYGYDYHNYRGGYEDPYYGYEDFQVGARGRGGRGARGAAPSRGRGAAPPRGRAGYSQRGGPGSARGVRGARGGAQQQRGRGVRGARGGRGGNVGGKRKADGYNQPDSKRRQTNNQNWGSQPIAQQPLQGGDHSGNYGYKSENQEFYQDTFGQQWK

[9] = molecular target: T9, GST-MSI2 (full-length human MSI2) (Homo sapiens, UniProt Q96DH6, F66A); test: microscale thermophoresis; format: binding
T9 construct: full-length, N-terminal GST-Flag tag kept (pGEX6P3), expressed in E. coli BL21(DE3)
T9 sequence (Q96DH6 whole entry F66A): as the sequence (Q96DH6 whole entry R100A) above, with F66A, A100R counted along it

GST-SRSF2 = molecular target: T10, GST-SRSF2 (Homo sapiens, UniProt Q01130); test: microscale thermophoresis; format: binding
T10 construct: commercial GST-tagged recombinant protein
T10 sequence (Q01130 2-221): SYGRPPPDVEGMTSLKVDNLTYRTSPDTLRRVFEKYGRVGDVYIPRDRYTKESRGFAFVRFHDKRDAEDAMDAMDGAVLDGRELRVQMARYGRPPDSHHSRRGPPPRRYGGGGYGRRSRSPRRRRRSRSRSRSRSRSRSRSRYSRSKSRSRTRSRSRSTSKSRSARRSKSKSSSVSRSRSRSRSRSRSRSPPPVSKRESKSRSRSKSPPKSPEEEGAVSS

[10] = molecular target: T6, GST-MSI2 (full-length human MSI2); test: fluorescence polarization, RNA-binding inhibition; format: biochemical; details: Cy3-C9-rGUAGUAGU RNA oligo, 384-well; no inhibition
[11] = molecular target: T6, GST-MSI2 (full-length human MSI2); test: fluorescence polarization, RNA-binding inhibition; format: biochemical
MSI2 F66A = MSI2 F66A (Homo sapiens, UniProt Q96DH6 1-328, F66A); test: MST; MST: 50 mM HEPES, 100 mM NaCl, 0.05% Tween-20, pH 7.4, RT; EMSA: 10 mM HEPES, 20 mM KCl (+10 mM KCl), 1 mM MgCl2, 1 mM DTT, 5% glycerol, 100 ug/mL tRNA, 40 nM RNA, RT; details: protein: recombinant; tags: GST, Flag; single strand
Sequence of MSI2 F66A (Q96DH6 whole entry F66A): as the sequence (Q96DH6 whole entry R100A) above, with F66A, A100R counted along it

MSI2 WT = MSI2 WT (Homo sapiens, UniProt Q96DH6 1-328); test: as above; details: protein: recombinant; tags: GST, Flag; single strand
Sequence of MSI2 WT (Q96DH6 whole entry): as the sequence (Q96DH6 whole entry R100A) above, with A100R counted along it

MSI2 R100A = MSI2 R100A (Homo sapiens, UniProt Q96DH6 1-328, R100A); test: as above; details: protein: recombinant; tags: GST, Flag; single strand
Sequence of MSI2 R100A (Q96DH6 whole entry R100A): as the sequence (Q96DH6 whole entry R100A) above

MSI2 K22A = MSI2 K22A (Homo sapiens, UniProt Q96DH6 1-328, K22A); test: as above; details: protein: recombinant; tags: GST, Flag; single strand
Sequence of MSI2 K22A (Q96DH6 whole entry K22A): as the sequence (Q96DH6 whole entry R100A) above, with K22A, A100R counted along it

MSI2 F97A = MSI2 F97A (Homo sapiens, UniProt Q96DH6 1-328, F97A); test: as above; details: protein: recombinant; tags: GST, Flag; single strand
Sequence of MSI2 F97A (Q96DH6 whole entry F97A): as the sequence (Q96DH6 whole entry R100A) above, with F97A, A100R counted along it

Which results are given for Cc1cc2nc3c(=O)[nH]c(=O)nc-3n(C)c2cc1C=O [Ro, Ro 08–2750]?
Kd (MSI2 RRM1 [1]): 24.3 ± 4 µM; Kd (bovine serum ALBUMIN): > 500 µM; Kd [2]: 148 ± 65 µM; NMR chemical shift perturbation (MSI2 RRM1 [3]): observed three main regions with structural changes by titrating MSI2 with Ro; microscale thermophoresis [4]: The triple mutant (F66A/F97A/R100A) was incapable of binding to Ro; Kd [5]: 69.5 ± 14.7 µM; IC50 [6]: 2.7 ± 0.4 µM; Kd [7]: 12.3 ± 0.5 µM; Kd [8]: > 200 µM; Kd (GST-SYNCRIP): 236 ± 167 µM; Kd [9]: > 200 µM; Kd (GST-SRSF2): 190 ± 62 µM

What does the source list for CC(=O)Nc1ccc2nc3c(=O)n(C)c(=O)n(C)c3nc2c1 [Ro-NGF]?
fluorescence polarization, RNA-binding inhibition [10]: Ro-NGF failing to inhibit RNA-binding activity; Kd ([7]; NT647-labelled protein, 50 mM HEPES, 100 mM NaCl, 0.05% Tween-20, pH 7.4, RT, no interaction detected up to 500 μM): > 500 µM

What does the source list for Cc1cc2nc3c(=O)[nH]c(=O)nc-3n(C)c2cc1CO [Ro-OH]?
IC50 [11]: 25 ± 8 µM; Kd [7]: 302 ± 119 µM

B1: 15-nt MSI RNA oligo (ssRNA)
RNA: GUAGUAGUAGUAGUA
Which Kd (MSI2 F66A) does the source give for B1 here?
The Kd was 0.0062 ± 0.0006 µM.

What about the Kd (MSI2 WT) of the same molecule?
The Kd was 0.0088 ± 0.0009 µM.

And the Kd (MSI2 R100A)?
Its Kd is 0.0065 ± 0.0009 µM.

And the Kd (MSI2 K22A)?
Its Kd is 0.0064 ± 0.0006 µM.

What about the Kd (MSI2 F97A) of the same molecule?
The Kd was 0.0066 ± 0.001 µM.

— publication PMC6584500, “Small-molecule targeting of MUSASHI RNA-binding activity in acute myeloid leukemia” (Nature Communications, 2019)
